Assay results: ChEMBL document CHEMBL1148482, “Novel benzophenones as non-nucleoside reverse transcriptase inhibitors of HIV-1” (J Med Chem, 2004)

How the values were obtained:
[1] = system: Human immunodeficiency virus 1; assay: Antiviral activity against G190A strain of HIV-1; assay type: functional, organism-based
[2] = system: Human immunodeficiency virus 1; assay: Antiviral activity against K103N/L100I strain of HIV-1; assay type: functional, organism-based
[3] = system: Human immunodeficiency virus 1; assay: Antiviral activity against Y188C strain of HIV-1; assay type: functional, organism-based
[4] = system: Human immunodeficiency virus 1; assay: Antiviral activity against K101E strain of HIV-1; assay type: functional, organism-based
[5] = system: Human immunodeficiency virus 1; assay: Antiviral activity against V106I strain of HIV-1; assay type: functional, organism-based
[6] = system: Human immunodeficiency virus 1; assay: Antiviral activity against V106A strain of HIV-1; assay type: functional, organism-based
[7] = system: Human immunodeficiency virus 1; assay: Antiviral activity against P225H strain of HIV-1; assay type: functional, organism-based
MT4 [8] = assay: Antiviral activity against MT-4 cells infected with wild-type HIV-1; details: Homo sapiens
[9] = system: Human immunodeficiency virus 1; assay: Antiviral activity against L100I strain of HIV-1; assay type: functional, organism-based
MT4 [10] = assay: Antiviral activity against MT-4 cells infected with Nev-R strain of HIV-1; details: Homo sapiens
[11] = system: Human immunodeficiency virus 1; assay: Antiviral activity against K103N/Y181C strain of HIV-1; assay type: functional, organism-based
[12] = system: Human immunodeficiency virus 1; assay: Antiviral activity against K103N strain of HIV-1; assay type: functional, organism-based
[13] = system: Human immunodeficiency virus 1; assay: Antiviral activity against P236L strain of HIV-1; assay type: functional, organism-based
[14] = system: Human immunodeficiency virus 1; assay: Antiviral activity against wild-type HIV-1; assay type: functional, organism-based
[15] = system: Human immunodeficiency virus 1; assay: Antiviral activity against K103N/G190A strain of HIV-1; assay type: functional, organism-based
[16] = system: Human immunodeficiency virus 1; assay: Antiviral activity against V108I/Y181C strain of HIV-1; assay type: functional, organism-based
[17] = system: Human immunodeficiency virus 1; assay: Antiviral activity against E138K strain of HIV-1; assay type: functional, organism-based
[18] = system: Human immunodeficiency virus 1; assay: Antiviral activity against V106A/Y181C strain of HIV-1; assay type: functional, organism-based
[19] = system: Human immunodeficiency virus 1; assay: Antiviral activity against K103N/P225H strain of HIV-1; assay type: functional, organism-based
[20] = system: Human immunodeficiency virus 1; assay: Antiviral activity against V106I/Y181C strain of HIV-1; assay type: functional, organism-based
[21] = system: Human immunodeficiency virus 1; assay: Antiviral activity against K103N/V108I strain of HIV-1; assay type: functional, organism-based
[22] = system: Human immunodeficiency virus 1; assay: Antiviral activity against V108I strain of HIV-1; assay type: functional, organism-based
[23] = system: Human immunodeficiency virus 1; assay: Antiviral activity against Y181C strain of HIV-1; assay type: functional, organism-based

`CC(C)Nc1cccnc1N1CCN(C(=O)c2cc3cc(NS(C)(=O)=O)ccc3[nH]2)CC1` [DELAVIRDINE] showed an IC50 [1] of 35 nM, an IC50 [2] of over 8400 nM and an IC50 [3] of 170 nM. The IC50 [4] was 29 nM, the IC50 ([5]; read-out: IC50) was 55 nM and the IC50 [6] was 900 nM. It also gave an IC50 [7] of 11 nM, an IC50 (MT4 [8]) of 160 nM and an IC50 [9] of 920 nM. The IC50 (MT4 [10]) was 2400 nM, the IC50 [11] was over 8400 nM and the IC50 [12] was 2700 nM. It also gave an IC50 [13] of 1600 nM, an IC50 [14] of 200 nM and an IC50 [15] of 2700 nM. The IC50 [16] was over 10000 nM, the IC50 [17] was 10 nM and the IC50 [18] was over 10000 nM. It also gave an IC50 [19] of 2300 nM, an IC50 [20] of 4500 nM and an IC50 [21] of 3500 nM. It also gave an IC50 [22] of 78 nM and an IC50 [23] of 2300 nM.

Compound `O=C1Nc2ccc(Cl)cc2[C@@](C#CC2CC2)(C(F)(F)F)O1` [EFAVIRENZ] has an IC50 (MT4 [8]) of 3.5 nM and an IC50 (MT4 [10]) of 2.7 nM.

`Cc1ccnc2c1NC(=O)c1cccnc1N2C1CC1` [NEVIRAPINE] gave an IC50 [1] of over 10000 nM, an IC50 [2] of 8000 nM and an IC50 [3] of 2300 nM. For the same compound, the IC50 [4] was 520 nM, the IC50 [5] was 150 nM and the IC50 [6] was 9000 nM. The IC50 [7] was 1200 nM, the IC50 (MT4 [8]) was 96 nM and the IC50 [9] was 500 nM. The IC50 (MT4 [10]) was 17200 nM, the IC50 [11] was over 10000 nM and the IC50 [12] was 6600 nM. The IC50 [13] was 56 nM, the IC50 [14] was 100 nM and the IC50 [15] was over 10000 nM. It also gave an IC50 [16] of over 10000 nM, an IC50 [17] of 65 nM and an IC50 [18] of over 10000 nM. The IC50 [19] was 9800 nM, the IC50 [20] was over 10000 nM and the IC50 [21] was 15000 nM. It also gave an IC50 [22] of 290 nM and an IC50 [23] of 9400 nM.
